Assay results from paper PMC9145865, “Effects of Rare Phytocannabinoids on the Endocannabinoid System of Human Keratinocytes” (International Journal of Molecular Sciences, 2022).

Key:
DAGLβ = test: Western blot protein expression of DAGLβ; format: cell-based, human; conditions: HaCaT cells, half-IC50 dose, 24 h, vs. control
Experimental: The HaCaT cells were seeded into 6-well plates at a density of 4 × 10^4 per well, incubated overnight and then treated with the selected pCBs (6.0 µM of CBG, 4.0 µM of CBC, 9.0 µM of THCV and 13.0 µM of CBGA) for 24 h. The cell pellets were collected and then lysed in an ice-cold lysis buffer (10 mM of EDTA, 50 mM of pH 7.4 Tris–HCl, 150 mM of sodium chloride, 1% Triton-X-100, 2 mM of phenylmethylsulfonyl fluoride, 2 mM of sodium orthovanadate, […] of leupeptin and […] of aprotinin). The amount of protein was determined using the Bio-Rad Protein assay (Bio-Rad Laboratories, Hemel Hempstead, UK). An equal amount of protein (60 µg) was loaded onto 10% sodium dodecyl sulfate–polyacrylamide gels and blotted onto polyvinylidene fluoride sheets (Amersham Biosciences, Piscataway, NJ, USA). The membranes were blocked with dried 5% non-fat milk for 1 h and then incubated with suitable primary antibodies. Detection was performed using Azure Biosystems c400 (Dublin, CA, USA). The membranes were stripped using the Restore Western Blot Stripping Buffer from Thermo Fisher Scientific (Waltham, MA, USA) for 30 min under agitation at room temperature, according to the manufacturer’s instructions. The primary antibodies (Table 6) that were used were obtained from the following sources: […]

CB1 = conditions: in vivo and in vitro; ref [53]; cited from earlier work
NAPE-PLD = NAPE-PLD activity assay in homogenates of treated cells; format: cell-based, human; conditions: HaCaT cells, half-IC50 amount, 24 h, vs. control
Experimental: NAPE-PLD: The HaCaT cells were seeded into 6-well plates at a density of 4 × 10^4 per well, incubated overnight and then treated with the selected pCBs (6.0 µM of CBG, 4.0 µM of CBC, 9.0 µM of THCV and 13.0 µM of CBGA) for 24 h. The cell pellets were collected and NAPE-PLD activity was determined in the homogenates of the cells after 24 h of treatment with each pCB. Then, the homogenates were incubated in a reaction mixture that contained 50 mM of Tris–HCl, 0.05% Triton X-100 pH 8.0 and 10 µM of fluorogenic substrate PED6 (N-((6-(2,4-Dinitrophenyl)amino)hexanoyl)-2(4,4-Difluoro-5,7-Dimethyl-4-Bora-3a,4a-Diaza-s-Indacene-3-Pentanoyl)-1-Hexadecanoyl-sn-Glycero-3 Phosphoethanolamine, Triethylammonium Salt). The homogenates were pre-incubated with the specific NAPE-PLD inhibitor ARN19874 at 3.8 mM [65] (Cayman Chemical, Ann Arbor, MI, USA) for 30 min at room temperature in order to fully erase the enzyme activity as a control. Fluorescence values were measured with excitation at λ = 485–488 nm and emission at λ = 530 nm at 37 °C by means of continuity kinetics at 30-sec intervals for 30 min in an Enspire multimode plate reader (Perkin Elmer, Waltham, MA, USA), as reported in [66]. NAPE-PLD activity was expressed as florescence intensity (arbitrary units, AU) per min per mg of protein.

2-AG = test: Endogenous 2-AG content by UHPLC-MS/MS; format: cell-based, human; conditions: HaCaT cells, half-IC50 dose, 24 h, vs. control
Experimental: The HaCaT cells were seeded into 6-well plates at a density of 4 × 10^4 per well, incubated overnight and then treated with the selected pCBs (6.0 µM of CBG, 4.0 µM of CBC, 9.0 µM of THCV and 13.0 µM of CBGA) for 24 h. The analytical standards that were used were N-arachidonoylethanolamine (AEA), N-arachidonoylethanolamine-d8 (AEA-d8), 2-arachidonoylglicerol (2-AG), 2-arachidonoylglicerol-d8 (2-AG-d8), N-palmitoylethanolamine (PEA) and […] (PEA-d4). The lipid fraction from these cells was extracted using chloroform–methanol–water (2:1:1 v/v) in the presence of ISs (1 ng/mL^−1 of AEA-d8, 100 ng mL^−1 of 2-AG-d8 and 1 ng mL^−1 of PEA-d4). The organic phase was dried under gentle nitrogen stream and then subjected to a micro-solid phase extraction (µSPE) procedure for a rapid clean-up using OMIX C18 tips from Agilent Technologies (Santa Clara, CA, USA). All analyses were performed using a Nexera XR LC 20 AD UHPLC system (Shimadzu Scientific Instruments, USA) that was equipped with Kinetex XB-C18 1.7 µm 100 × 2.1 mm from Phenomenex (Torrance, CA, USA) (for the LC parameters, see Figure S5) and coupled with a 4500 Qtrap from Sciex (Toronto, ON, Canada) that was equipped with a Turbo V electrospray ionization (ESI) source (the MS/MS parameters are shown in Table S1). The levels of AEA, 2-AG and PEA were then calculated as pmoles per 10^6 cells, as reported in [60].

Q: What does the source list for CCCc1cc(O)c2c(c1)OC(C)(C)[C@@H]1CCC(C)=C[C@@H]21 [THCV, Δ^9-tetrahydrocannabivarin]?
A: DAGLβ protein expression (in words) (DAGLβ): significantly reduced; Protein Expression DAGLβ (DAGLβ): ↓+++; activity at CB1 (CB1): CB1 antagonist

Q: Which “activity of NAPE-PLD” value (NAPE-PLD) does the source give for CCCCCc1cc(O)c(C/C=C(\C)CCC=C(C)C)c(O)c1C(=O)O [CBGA, cannabigerolic acid] here?
A: Its value is “significantly increased”.

Q: With CCCCCc1cc(O)c(C/C=C(\C)CCC=C(C)C)c(O)c1 [CBG, cannabigerol] as the molecule, how does the “endogenous 2-AG content” value (2-AG) read?
A: The value was “markedly increased”.
